Results: patent US12161642B2, “Ferrochelatase inhibitors and methods of use” (INDIANA UNIVERSITY RESEARCH AND TECHNOLOGY CORPORATION, priority 2018, dated 2024)
Where two headings read alike, the source gives them in different places.

Experiments:
HRECs [1] = experiment: Matrigel-based tube formation assay; type: cell-based, human; details: 8 hours, total tubule length vs. DMSO control
Protocol: The Matrigel-based tube formation assay was performed. Briefly, 50 μL Matrigel was allowed to solidify in a 96-well black, clear bottom plate at 37° C. for 20 minutes. HRECs were added to the solid Matrigel at 15,000 cells/well in 100 μL EGM-2 and dosed with appropriate concentrations of compound in DMSO, 1 μL/well. Tube formation was observed every 2 hours by brightfield microscopy and images were taken after 8 hours of tube formation. Six images per treatment were analyzed using the AngiogenesisAnalyzer plugin for ImageJ and HREC total tubule length for treated cells was normalized to DMSO controls. Statistical analysis was completed using GraphPad Prism, with ANOVA followed by Dunnett's post hoc tests used to compare treatments to control (DMSO).

FECH in HRECs = experiment: PPIX accumulation assay in HRECs; type: cell-based, human; details: after 5-ALA treatment; vs. DMSO control
Protocol: To confirm that ferrochelatase is inhibited in HRECs after treatment with compounds, the buildup of FECH's substrate PPIX was assayed fluorometrically. HRECs were plated for 80% confluency at the time of treatment in 6 cm dishes coated with attachment factor. Cells were then treated with compound in DMSO (1% DMSO final concentration) for 2 hours at 37° C. 5-Aminolevulinic acid, the first dedicated precursor in the heme synthesis pathway, was then added to the cells at 1 mM and allowed to incubate at 37° C. for another 2 hours. Cells were washed with PBS and flash frozen. Cells were lysed in 200 μL RIPA buffer and cleared by centrifugation at 14,000 g for 15 minutes at 4° C. The cleared lysates (20 μL) were added to wells of a 384 well plate in triplicate. An equal volume of 2M HC104 prepared in methanol was added to each well and PPIX was detected by immediately reading fluorescence on a Biotek Synergy H1 plate reader at 406 nm excitation and 610 nm emission. Total PPIX accumulation was determined by comparing fluorescence output with PPIX standards, prepared in DMSO and diluted in RIPA buffer and 2M HC104 (1:1 ratio) and read on the same plate. Protein in the cleared lysates was quantified with a standard Bradford assay and the amount of PPIX accumulation is expressed per mg protein.

HRECs [2] = experiment: HREC proliferation assay (alamarBlue), GI50 determination; type: cell-based, human; details: proliferation of HRECs
Protocol: Human retinal microvascular endothelial cells (HRECs) were cultured in EGM-2 medium (Lonza). Cells (2500/well) in EGM-2 medium were plated in 48 wells in the center of a 96-well black with clear bottom TC treated plate are allowed to attach overnight. The cells were treated with compounds such that final assay concentrations were 100 μM, 30 μM, 10 μM, 3 μM, 1 μM, 100 nM, and 10 nM with DMSO control (1% final DMSO concentration). Cells were allowed to proliferate for 44 hours prior to addition of alamarBlue. The alamarBlue reagent is a flurorometric/colorimetric redox reagent that is reduced in the presence of growing cells. The assay was completed with a read of fluorescence at excitation of 560 nm and emission of 590 nm. GI50 values were determined using GraphPad Prism software.

recombinant human FECH = recombinant human FECH (Homo sapiens (Human), UniProt P22830); experiment: FECH enzymatic activity assay (Ni2+ mesoporphyrin IX formation, absorbance at 550 nm); type: biochemical
recombinant human FECH, sequence (P22830 55-423): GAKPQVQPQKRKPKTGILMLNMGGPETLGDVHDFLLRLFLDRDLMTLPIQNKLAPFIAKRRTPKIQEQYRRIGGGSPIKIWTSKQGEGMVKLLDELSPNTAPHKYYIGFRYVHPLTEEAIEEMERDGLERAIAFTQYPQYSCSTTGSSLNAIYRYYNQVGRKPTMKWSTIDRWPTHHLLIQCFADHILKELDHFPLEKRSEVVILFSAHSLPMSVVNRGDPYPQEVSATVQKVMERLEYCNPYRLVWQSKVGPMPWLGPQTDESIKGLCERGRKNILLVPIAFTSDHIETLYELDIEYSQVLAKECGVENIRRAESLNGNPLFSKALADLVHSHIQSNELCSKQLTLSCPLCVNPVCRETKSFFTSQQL
Protocol: The human FECH expression plasmid pHDTF20 was obtained in E. coli cells from the Dailey Lab (University of Georgia). The cells were grown in Circlegrow medium (MP Biomedicals, LLC #3000-122) with ampicillin for 20 hours. Cells were harvested, lysed in a Tris-MOPS buffer and purified by immobilized metal affinity chromatography using HisPur Cobalt resin (Thermo Fisher #89965).
The activity assay buffer was 100 mM Tris-HCl pH 8.0 with 0.05% octyl glucoside detergent. Assay reagents included 100 μM NiCl (Sigma #339350), 0.75 μM FECH enzyme and 100 μM mesoporphyrin (Sigma #258806) prepared in ammonium hydroxide (Santa Cruz #sc-214535).
The kinetic assay was optimized for a 384-well format. For the 384-well assay, each well contained a 50 μL reaction with 40 μL buffer, 5 μL mesoporphyrin solution, 5 μL NiCl and FECH solution. […] This time point was used for the chemical screen.
A mixture of assay buffer, NiCl and FECH enzyme (15 μL) was added to all wells on the assay plate using a MulitFlo dispenser. To start the reaction, 15 μL of a 333 μM mesoporphyrin solution in assay buffer was added to the plate, the plate spun down and the absorbance at OD=550 nm immediately read to establish a read at time 0. Plates were read for absorbance at OD=550 nm again at t=20 minutes and the activity was expressed as the change in the absorbance over the 20 minute reaction.
Compounds, reordered from ChemDiv or synthesized as described above, were made to 10 mM in DMSO and tested in the FECH enzymatic assay at final concentrations of […] 100 μM (1% final DMSO concentration). IC50 values for the compounds were determined using GraphPad Prism software.
A kinetic assay to monitor FECH enzymatic activity was adapted from a published protocol (Burden et a., Biochim Biophys Acta 1435, 191-197 (1999)).

[3] = recombinant FECH, read-out: FECH IC50

Row | Compound | GI50 (HRECs [2]; Homo sapiens, HREC, 44 h) [µM] | IC50 (recombinant human FECH; [3]) [µM] | other results
1 | CC(C)(C)c1ccc(-c2nc3[nH]c(CNc4ccc5ccccc5n4)cc(=O)n3n2)cc1 [Example 4e, 2-(4-(tert-butyl)phenyl)-5-((quinolin-2-ylamino)methyl)-[1,2,4]triazolo[1,5-a]pyrimidin-7(4H)-one] | 92.5 | 0.178 | tube formation of HRECs (HRECs [1]): blocked tube formation; buildup of PPIX in HRECs (FECH in HRECs): induced a buildup of PPIX
2 | CC(C)(C)c1ccc(-c2nc3[nH]c(CNc4cccc(Cl)c4)cc(=O)n3n2)cc1 [Example 4h, 2-(4-(tert-butyl)phenyl)-5-(((3-chlorophenyl)amino)methyl)-[1,2,4]triazolo[1,5-a]pyrimidin-7(4H)-one] | > 100 |  | tube formation of HRECs (HRECs [1]): blocked tube formation
3 | CCCc1cc(=O)n2nc(CNc3ccccc3C)nc2[nH]1 [Example 5a, 5-propyl-2-((o-tolylamino)methyl)-[1,2,4]triazolo[1,5-a]pyrimidin-7(4H)-one] | 75.5 | 92 | tube formation of HRECs (HRECs [1]): blocked tube formation
4 | CCCc1cc(=O)n2nc(CNc3ccc(C)cc3)nc2[nH]1 [Example 5c, 5-propyl-2-((p-tolylamino)methyl)-[1,2,4]triazolo[1,5-a]pyrimidin-7(4H)-one] | 28.3 | 0.293 | tube formation of HRECs (HRECs [1]): blocked tube formation
5 | CCCc1cc(=O)n2nc(CNc3ccccc3Cl)nc2[nH]1 [Example 5d, 2-(((2-chlorophenyl)amino)methyl)-5-propyl-[1,2,4]triazolo[1,5-a]pyrimidin-7(4H)-one] | 25.7 | > 100 | tube formation of HRECs (HRECs [1]): blocked tube formation
6 | CCCc1cc(=O)n2nc(CNc3ccc(C(C)(C)C)cc3)nc2[nH]1 [Example 5h, 2-(((4-(tert-butyl)phenyl)amino)methyl)-5-propyl-[1,2,4]triazolo[1,5-a]pyrimidin-7(4H)-one] | 3.8 | > 100 | tube formation of HRECs (HRECs [1]): blocked tube formation
7 | Cc1ccc(NCc2nc3[nH]c(C)cc(=O)n3n2)cc1 [Example 5w, 5-methyl-2-((p-tolylamino)methyl)-[1,2,4]triazolo[1,5-a]pyrimidin-7(4H)-one] | > 100 | 22.5 | 
8 | COc1ccc(Cl)cc1NCc1cc(=O)n2nc(-c3ccc(C(C)(C)C)cc3)nc2[nH]1 [Example D351-0303] | 21.7 | 0.808 | 
9 | Cc1ccc(Cl)cc1NCc1cc(=O)n2nc(-c3ccc(C(C)(C)C)cc3)nc2[nH]1 [Example D351-0310] | 42.3 | 0.0981 | 
10 | Cc1cccc(C)c1NCc1cc(=O)n2nc(-c3ccc(C(C)(C)C)cc3)nc2[nH]1 [Example D351-0312] | > 100 | 1.39 | 
11 | Cc1ccc(Cl)cc1NCc1cc(=O)n2nc(-c3ccccc3C)nc2[nH]1 [Example D351-0414] | > 100 | 0.346 | 
12 | COc1ccc(NCc2nc3[nH]c(C)c(Cc4ccc(Cl)cc4)c(=O)n3n2)cc1 [Example D433-1582] | > 100 | 0.0614 | 
13 | CCc1ccccc1NCc1nc2[nH]c(C)c(Cc3ccc(Cl)cc3)c(=O)n2n1 [Example D433-1585] | 74.6 | 1.25 | 
14 | CCOC(=O)CCc1c(C)[nH]c2nc(CNc3ccc(C)c(Cl)c3)nn2c1=O [Example D433-1688] | > 100 | 2.99 | 
15 | CCCc1cc(=O)n2nc(CNc3cccc(C(F)(F)F)c3)nc2[nH]1 [Example D433-1725] | 1.17 | 4.39 | 
16 | CCCc1cc(=O)n2nc(CNc3ccc(Cl)cc3)nc2[nH]1 [Example D433-1739] |  | 0.829 | GI50 (HRECs [2]; 44 hours): 3.14 µM
17 | CCCc1cc(=O)n2nc(CNc3cccc(OC)c3)nc2[nH]1 [Example D433-1741] | 1.61 | 2.86 | 
18 | CCCc1cc(=O)n2nc(CNc3ccc(C)c(Cl)c3)nc2[nH]1 [Example D433-1748] | > 100 | 0.57 | 
19 | CCCc1cc(=O)n2nc(CNc3cccc(Cl)c3C)nc2[nH]1 [Example D433-1750] | > 100 | 2.15 | 
20 | Cc1ccc(NCc2nc3[nH]c(C(C)C)cc(=O)n3n2)cc1Cl [Example D433-1798] | > 100 | 1.02 | 
21 | O=c1c2c([nH]c3nc(CNc4cccc(Cl)c4)nn13)CCC2 [Example D433-1831] | > 100 | 1.57 | 
22 | O=c1c2c([nH]c3nc(CNc4ccc(Cl)cc4)nn13)CCC2 [Example D433-1839] | 81.5 | 1.05 | 
23 | COc1cccc(NCc2nc3[nH]c4c(c(=O)n3n2)CCC4)c1 [Example D433-1841] | > 100 | 3.75 | 
24 | Cc1ccc(NCc2nc3[nH]c4c(c(=O)n3n2)CCC4)cc1Cl [Example D433-1848] | > 100 | 0.227 | 
25 | N-methylprotoporphyrin [NMPP, reference compound] |  |  | buildup of PPIX in HRECs (FECH in HRECs): induced a buildup of PPIX; FECH activity inhibition (recombinant human FECH; 10 μM): completely inhibited; IC50 (recombinant human FECH; positive control, in our assay, read-out: IC50 (FECH inhibition)): 0.45 µM
